{"source": "paper PMC13266999", "about": "“Designing Antibiotics with Inherent Resistance to Efflux as a Strategy to Revive Discovery against Multidrug-Resistant Pathogens” (Journal of Medicinal Chemistry, 2026)", "key": {"E. coli": {"tested_on": "E. coli", "assay": "MIC (microbroth dilution)", "format": "cell-based", "settings": "Escherichia coli", "procedure,_shortened": "(§1)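 Broth microdilution MICs, defined as lowest compound level without visible growth (OD600 read), on bacteria grown overnight to stationary phase then diluted. Twofold compound dilutions; some wells also received PMBN, final 30 μg/mL, to permeabilize the outer membrane.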"}, "S. aureus": {"tested_on": "S. aureus", "assay": "MIC (microbroth dilution)", "format": "cell-based, Staphylococcus aureus", "settings": "for MIC: read-out: MIC", "procedure,_shortened": "as §1"}}, "note": "Like-named read-outs stand apart in the source and are kept apart here.", "data": [{"smiles": "Cc1cc(C)nc(N[C@@H]2CCN(c3c(F)cc4c(=O)c(C(=O)O)cn5c4c3OC[C@@H]5C)C2)n1", "note": "[Compound 50, (S)-10-((R)-3-((4,6-Dimethylpyrimidin-2-yl)amino)pyrrolidin-1-yl)-9-fluoro-3-methyl-7-oxo-2,3-dihydro-7H-[1,4]oxazino[2,3,4-ij]quinoline-6-carboxylic acid]", "values": [{"measurement": "MIC", "setting": "E. coli; 319238/UR", "result": 32, "unit": "µg/mL"}, {"measurement": "MIC", "setting": "E. coli; LEC006", "result": 0.5, "unit": "µg/mL"}, {"measurement": "MIC", "setting": "E. coli; LEC007", "result": 0.25, "unit": "µg/mL"}, {"measurement": "MIC", "setting": "E. coli; LEC077", "result": 8, "unit": "µg/mL"}, {"measurement": "MIC", "setting": "E. coli; LEC081", "result": 8, "unit": "µg/mL"}, {"measurement": "MIC", "setting": "E. coli; NCTC10418, NCTC 10418", "result": 0.125, "unit": "µg/mL"}, {"measurement": "MIC", "setting": "E. coli; NCTC11954, NCTC 11954", "result": 0.25, "unit": "µg/mL"}, {"measurement": "MIC", "setting": "E. coli; NCTC12241, NCTC 12241", "result": 0.25, "unit": "µg/mL"}, {"measurement": "MIC", "setting": "E. coli; NCTC12923, NCTC 12923", "result": 1, "unit": "µg/mL"}, {"measurement": "fold improvement in activity compared to 46", "setting": "S. aureus", "result": "2–8 fold"}, {"measurement": "fold difference in MIC, SA-1199B vs SA-1199", "setting": "S. aureus; NorA-overexpressing vs WT", "result": "no difference"}, {"measurement": "MIC", "setting": "S. aureus; Staphylococcus aureus, 1199, + 4% albumin", "result": 0.06, "unit": "µg/mL"}, {"measurement": "MIC", "setting": "S. aureus; Staphylococcus aureus, 1199b, + 4% albumin", "result": 0.125, "unit": "µg/mL"}, {"measurement": "MIC", "setting": "S. aureus; Staphylococcus aureus, ATCC6538P, ATCC 6538P", "result": 0.03, "unit": "µg/mL"}, {"measurement": "MIC", "setting": "S. aureus; Staphylococcus aureus, ATCC9144, ATCC 9144, + 4% albumin", "result": 0.125, "unit": "µg/mL"}, {"measurement": "MIC", "setting": "S. aureus; Staphylococcus aureus, ATCC9144, ATCC 9144", "result": "≤ 0.004", "unit": "µg/mL"}, {"measurement": "MIC", "setting": "S. aureus; Staphylococcus aureus, ATCC10390, ATCC 10390", "result": 0.03, "unit": "µg/mL"}, {"measurement": "MIC", "setting": "S. aureus; Staphylococcus aureus, ATCC13709, ATCC 13709", "result": 0.03, "unit": "µg/mL"}, {"measurement": "MIC", "setting": "S. aureus; Staphylococcus aureus, ATCC19636, Smith, ATCC 19636", "result": 0.03, "unit": "µg/mL"}, {"measurement": "MIC", "setting": "S. aureus; Staphylococcus aureus, ATCC27660, ATCC 27660", "result": 0.03, "unit": "µg/mL"}, {"measurement": "MIC", "setting": "S. aureus; Staphylococcus aureus, ATCC29213, ATCC 29213 + 50% serum", "result": 1, "unit": "µg/mL"}, {"measurement": "MIC", "setting": "S. aureus; Staphylococcus aureus, ATCC29213, ATCC 29213", "result": 0.03, "unit": "µg/mL"}, {"measurement": "MIC", "setting": "S. aureus; Staphylococcus aureus, ATCC 33591 / MRSA, MRSA (ATCC 33591)", "result": 0.03, "unit": "µg/mL"}, {"measurement": "MIC", "setting": "S. aureus; Staphylococcus aureus, ATCC 33592 / MRSA, MRSA (ATCC 33592)", "result": 0.03, "unit": "µg/mL"}, {"measurement": "MIC", "setting": "S. aureus; Staphylococcus aureus, ATCC33594, ATCC 33594", "result": 0.03, "unit": "µg/mL"}, {"measurement": "MIC", "setting": "S. aureus; Staphylococcus aureus, ATCC49230, ATCC 49230", "result": 0.03, "unit": "µg/mL"}, {"measurement": "MIC", "setting": "S. aureus; Staphylococcus aureus, MRSA / NRS 17 / VISA, VISA MRSA (NRS17)", "result": 1, "unit": "µg/mL"}, {"measurement": "MIC", "setting": "S. aureus; Staphylococcus aureus, MRSA / NRS 22 / USA600, USA600 MRSA GISA (NRS22)", "result": 4, "unit": "µg/mL"}, {"measurement": "MIC", "setting": "S. aureus; Staphylococcus aureus, MRSA / NRS 71, MRSA (NRS71)", "result": 1, "unit": "µg/mL"}, {"measurement": "MIC", "setting": "S. aureus; Staphylococcus aureus, MRSA / NRS 100, MRSA (COL; NRS100)", "result": 0.03, "unit": "µg/mL"}, {"measurement": "MIC", "setting": "S. aureus; Staphylococcus aureus, MRSA / NRS 119, MRSA Linezolid-R (NRS119)", "result": 1, "unit": "µg/mL"}, {"measurement": "MIC", "setting": "S. aureus; Staphylococcus aureus, MRSA / NRS 123 / USA400, USA400 MRSA (NRS123)", "result": 0.03, "unit": "µg/mL"}, {"measurement": "MIC", "setting": "S. aureus; Staphylococcus aureus, MRSA / NRS 127, LZD-NS MRSA (NRS127)", "result": 4, "unit": "µg/mL"}, {"measurement": "MIC", "setting": "S. aureus; Staphylococcus aureus, MRSA / NRS 269, TGC-NS MRSA (NRS269)", "result": 2, "unit": "µg/mL"}, {"measurement": "MIC", "setting": "S. aureus; Staphylococcus aureus, MRSA / NRS 271, Linezolid-R MRSA (NRS271)", "result": 0.5, "unit": "µg/mL"}, {"measurement": "MIC", "setting": "S. aureus; Staphylococcus aureus, MRSA / NRS 382 / USA100, USA100 MRSA (NRS382)", "result": 0.5, "unit": "µg/mL"}, {"measurement": "MIC", "setting": "S. aureus; Staphylococcus aureus, MRSA / NRS 383 / USA200, USA200 MRSA (NRS383)", "result": 1, "unit": "µg/mL"}, {"measurement": "MIC", "setting": "S. aureus; Staphylococcus aureus, MRSA / NRS 384 / USA300, USA300 MRSA (NRS384)", "result": 0.03, "unit": "µg/mL"}, {"measurement": "MIC", "setting": "S. aureus; Staphylococcus aureus, MRSA / NRS 385 / USA500, USA500 MRSA (NRS385)", "result": 0.5, "unit": "µg/mL"}, {"measurement": "MIC", "setting": "S. aureus; Staphylococcus aureus, MRSA / NRS 386 / USA700, USA700 MRSA (NRS386)", "result": 0.25, "unit": "µg/mL"}, {"measurement": "MIC", "setting": "S. aureus; Staphylococcus aureus, MRSA / NRS 387 / USA800, USA800 MRSA (NRS387)", "result": 0.03, "unit": "µg/mL"}, {"measurement": "MIC", "setting": "S. aureus; Staphylococcus aureus, MRSA / NRS 402 / VISA, VISA DAP-NS MRSA (NRS402)", "result": 1, "unit": "µg/mL"}, {"measurement": "MIC", "setting": "S. aureus; Staphylococcus aureus, MRSA / NRS 483, USA1000 MRSA (NRS483)", "result": 0.03, "unit": "µg/mL"}, {"measurement": "MIC", "setting": "S. aureus; Staphylococcus aureus, MRSA / NRS 484, USA1100 MRSA (NRS484)", "result": 0.03, "unit": "µg/mL"}, {"measurement": "MIC", "setting": "S. aureus; Staphylococcus aureus, MRSA / USA300, USA300 MRSA (FPR3757)", "result": 0.5, "unit": "µg/mL"}, {"measurement": "MIC", "setting": "S. aureus; Staphylococcus aureus, MRSA / USA300, USA300 MRSA (TCH1516)", "result": 0.03, "unit": "µg/mL"}]}]}
